Experimental data published in patent US20110281289A1, “QUANTIFICATION OF ENZYME ACTIVITY BY MASS SPECTROMETRY USING IMMOBILIZED SUBSTRATES” (LUDWIG INSTITUTE FOR CANCER RESEARCH LTD., priority 2008, published 2011).

Columns and labels:
Format in all cases: cell-based
PI3K [1] = assay: Multiplex kinase assay on immobilized full length protein substrates (pool 1, pool 2) with lysates of P31-Fuj AML cells, LC-MS readout; parameters: relative kinase activity (normalized to mean of control and treated, log 2 converted), phosphopeptide SMAD-1 RVESPVLPPVLVPR SEQ ID NO: 5: dose or concentration left out as unconfirmed
Method: P31-Fuj AML cells were seeded at a density of 500000 cells/mL. […] Cells were washed twice in ice cold PBS containing 100 mM NaVO3 and 1 mM NaF and were subsequently harvested and lysed in the following lysis buffer: 40 mM Hepes pH 7.5, 120 mM NaCl, 1 mM EDTA, 10 mM pyrophosphate, 10 mM glycerophosphate, 50 mM NaF, 0.5 mM orthovanadate, 0.3% CHAPS, and complete protease inhibitors (Roche). […] After allowing the reactions to occur in the presence of ATP and Mg^2+, samples were trypsin digested and subject to LC-MS analysis. […] Data from a peptide kinase assay using the Aktide peptide (a peptide substrate with sequence RPRAATF—SEQ ID NO: 24—known to provide a readout of PI3K pathway activation) was compared with the data from a multiplex kinase assay using full length protein substrates.

PI3K [2] = assay: Peptide kinase assay using the Aktide peptide (protocols of WO 07/127,767) with P31-Fuji total cell lysates; settings: P31-Fuji cells treated with LY294002 before lysis, vs control
Text: Data from a peptide kinase assay using the Aktide peptide (a peptide substrate with sequence RPRAATF—SEQ ID NO: 24—known to provide a readout of PI3K pathway activation) was compared with the data from a multiplex kinase assay using full length protein substrates. For this, P31-Fuji cells (an acute myeloid leukaemia cell line) were lysed and the kinase activity in total cell lysates measured using the protocols disclosed in WO 07/127,767 or using the protocols disclosed herein. Before lysis, cells were divided into two groups—(1) control and (2) treated with LY294002 (an inhibitor of PI3K which controls downstream protein kinases that phosphorylate the Aktide).

PI3K signalling activity = assay: Kinase reaction on immobilized BAD with lysates of serum-stimulated NIH-3T3 cells pre-treated or not with inhibitors, LC-MS readout; settings: starved NIH-3T3 cells pre-treated with inhibitor, 10% fetal calf serum 5 minutes before lysis
Method: Starved NIH-3T3 cells, pre-treated or not with the inhibitors Wortmannin (WM) or PD98059 (PD), were stimulated with 10% fetal calf serum for 5 minutes prior to cell lysis. Cell lysates were mixed with immobilized BAD and ATP/Mg^2+ and reactions allowed to occur at 37° C. for the indicated times. Reactions were stopped and beads washed to remove lysate components and to buffer exchange to 50 mM ammonium bicarbonate. Immobilized phosphorylated BAD was digested with trypsin and resultant peptides analysed by LC-MS and LC-MS/MS.
Mass spectrometry was used to multiplex the measurement of protein kinase activities, using BAD as a substrate for in vitro reactions. BAD is a known substrate of the protein kinase AKT/PKB, which is downstream of PI3K and upstream mTORC1. Mouse His-Tag-BAD protein was immobilized to SEPHAROSE® beads. In subsequent experiments, human proteins were synthesised with N-terminal GST and His tags separated by a PreScission protease cleavage site. Purification was performed with glutathione S-sepharose chromatography. […] These immobilized proteins were used as substrates for kinase reactions using total cell lysates as an enzyme source.
Starved NIH-3T3 cells, pre-treated or not with the inhibitors WM or PD, were stimulated with 10% fetal calf serum for 5 minutes prior to cell lysis. Cell lysates were mixed with immobilized BAD and ATP/Mg^2+ and reactions allowed to occur at 37° C. for the times indicated in FIG. 3. Reactions were stopped, and the beads washed three times to remove lysate components and to buffer exchange to 50 mM ammonium bicarbonate. For each wash, beads were isolated from the reaction by magnetic separation using a magnet. Immobilised phosphorylated BAD was digested with trypsin and resultant peptides analysed by LC-MS and LC-MS/MS. […] These observed activities increased when serum was added to the medium prior to lysis and were sensitive to the addition of wortmannin (WM) but not the MEK inhibitor PD98059 (PD), thus arguing that these activities are a measure of WM target inhibition, probably PI3K signalling activity, a known target of WM, and are probably downstream PI3K.

[3] = Pool 1, P31-Fuj AML cells, 10 mM LY204002 for 1 hr
[4] = Pool 2, P31-Fuj AML cells, 10 mM LY204002 for 1 hr
[5] = full length protein substrate, P31-Fuji cells treated with LY294002 before lysis, vs control

O=c1cc(N2CCOCC2)oc2c(-c3ccccc3)cccc12 [Ly294002, LY294002]
relative kinase activity (normalized, log 2), phosphopeptide Annexin MYGISLCQAILDETKGDYEK SEQ ID NO: 11 (PI3K [1]; [3]): 0.429 | relative kinase activity (normalized, log 2), phosphopeptide Beta Catenin AAVSHWQQQSYLDSGIHSGATTTAPSLSGK SEQ ID NO: 12 (PI3K [1]; [3]): −1.337 | relative kinase activity (normalized, log 2), phosphopeptide Beta Catenin TSMGGTQQQFVEGVR SEQ ID NO: 13 (PI3K [1]; [3]): −0.5836 | relative kinase activity (normalized, log 2), phosphopeptide SMAD-1 HSEYNPQHSLLAQFR SEQ ID NO: 6 (PI3K [1]; [3]): −2.2905 | relative kinase activity (normalized, log 2), phosphopeptide myc CHVSTHQHNYAAPPSTR SEQ ID NO: 7 (PI3K [1]; [3]): 0.1282 | relative kinase activity (normalized, log 2), phosphopeptide myc FELLPTPPLSPSR SEQ ID NO: 8 (PI3K [1]; [3]): 0.1492 | relative kinase activity (normalized, log 2), phosphopeptide myc FELLPTPPLSPSRR SEQ ID NO: 9 (PI3K [1]; [3]): −0.0685 | relative kinase activity (normalized, log 2), phosphopeptide myc VKLDSVR SEQ ID NO: 10 (PI3K [1]; [3]): -0.3467 | relative kinase activity (normalized to mean of control and treated, log 2 converted), phosphopeptide SMAD-1 RVESPVLPPVLVPR SEQ ID NO: 5 (PI3K [1]; Pool 1, P31-Fuj AML cells, LY204002 for 1 hr): −0.6559 | relative kinase activity (normalized, log 2), phosphopeptide 4ebp1 TPPRDLPTIPGVTSPSSDEPPMEASQSHLR SEQ ID NO: 19 (PI3K [1]; [4]): −4.332 | relative kinase activity (normalized, log 2), phosphopeptide S6 DIPGLTDTTVPR SEQ ID NO: 14 (PI3K [1]; [4]): −0.573 | relative kinase activity (normalized, log 2), phosphopeptide S6 DIPGLTDTTVPRR SEQ ID NO: 15 (PI3K [1]; [4]): 0.007685 | relative kinase activity (normalized, log 2), phosphopeptide foxo AVSMDNSNKYTK SEQ ID NO: 18 (PI3K [1]; [4]): −0.6542 | relative kinase activity (normalized, log 2), phosphopeptide foxo HNLSLHSR SEQ ID NO: 17 (PI3K [1]; [4]): −0.1853 | relative kinase activity (normalized, log 2), phosphopeptide foxo WPGSPTSR SEQ ID NO: 16 (PI3K [1]; [4]): −0.6519 | relative kinase activity (normalized, log 2), phosphopeptide p53 ALPNNTSSSPQPK SEQ ID NO: 21 (PI3K [1]; [4]): −5.826 | relative kinase activity (normalized, log 2), phosphopeptide p53 CSDSDGLAPPQHLIR SEQ ID NO: 22 (PI3K [1]; [4]): −3.078 | relative kinase activity (normalized, log 2), phosphopeptide p53 RALPNNTSSSPQPK SEQ ID NO: 23 (PI3K [1]; [4]): −1.587 | relative kinase activity (normalized, log 2), phosphopeptide p53 SVTCTYSPALNK SEQ ID NO: 20 (PI3K [1]; [4]): −2.051 | reduction of kinase activity towards Ser94 on the substrate 4EBP1 (PI3K [1]; [5]): 95% | reduction of kinase activity towards Ser121 on the substrate p53 (PI3K [1]; [5]): 99% | reduction on the kinase activity towards the Aktide (PI3K [2]): about 85%

COc1cccc(-c2cc(=O)c3ccccc3o2)c1N [PD98059]
kinase activity towards BAD pS136 (SEQ ID NO: 4) (PI3K signalling activity): not sensitive | kinase activity towards BAD pS170 (SEQ ID NO: 3) (PI3K signalling activity): not sensitive | kinase activity towards BAD pS136 (SEQ ID NO: 4) (PI3K signalling activity; listed as PD): sensitive to the addition of WM but not PD | kinase activity towards BAD pS170 (SEQ ID NO: 3) (PI3K signalling activity; listed as PD): sensitive to the addition of WM but not PD
